From US6239126A, “Arylpiperidine and aryl-1,2,5,6-tetra-hydropyridine urea derivatives” (American Home Products Corporation, priority 1999, dated 2001)
Read-outs that look alike come from different tables or passages of the source.

Legend:
[1] = target: T1, human 5HT1A receptor (Homo sapiens, UniProt P08908); test: 5-HT1A Receptor Intrinsic Activity Assay, agonist activity (cAMP in forskolin-treated CHO cells stably transfected with the human 5-HT1A receptor); format: cell-based; settings: read-out: cAMP Emax
T1 construct: expressed in transfected cells; host or cells: CHO cells, stably transfected
T1 sequence (P08908 1-422): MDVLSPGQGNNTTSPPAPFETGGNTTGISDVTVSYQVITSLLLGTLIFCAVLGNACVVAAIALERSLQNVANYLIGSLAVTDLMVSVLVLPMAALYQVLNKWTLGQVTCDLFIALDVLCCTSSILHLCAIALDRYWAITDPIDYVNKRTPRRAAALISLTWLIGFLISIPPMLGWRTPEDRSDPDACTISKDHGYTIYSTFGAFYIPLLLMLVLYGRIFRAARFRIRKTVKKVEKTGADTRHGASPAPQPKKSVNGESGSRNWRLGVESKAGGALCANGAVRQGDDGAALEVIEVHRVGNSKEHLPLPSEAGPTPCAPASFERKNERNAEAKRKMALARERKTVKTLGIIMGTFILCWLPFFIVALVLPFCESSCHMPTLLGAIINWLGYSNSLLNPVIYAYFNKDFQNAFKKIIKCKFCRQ
Protocol: (§1) The intrinsic activity of compounds of the present invention was established by testing the claimed compounds ability to reverse the stimulation of cyclic adenosinemonophosphate (cAMP) in CHO cells stably transfected with the human 5-HT1A receptor.
(§2) Stably transfected CHO cells were grown in DMEM containing 10% heat inactivated FBS and non-essential amino acids. The cells are plated at a density of […] cells per well in a 24 well plate and incubated for 2 days in a CO2 incubator. On the second day, the media is replaced with 0.5 mL treatment buffer (DMEM +25 mM HEPES, 5 mM theophylline, 10 μM pargyline) and incubated for 10 minutes at 37° C. Wells are treated with forskolin (1 μM final concentration) followed immediately by the test compound (0.1 and 1 μM for initial screen) and incubated for an additional 10 minutes at 37° C. The reaction is terminated by removal of the media and addition of 0.5 mL ice cold assay buffer (supplied in the RIA kit). Plates are stored at -20° C. prior to assessment of cAMP formation by RIA. EC50 values are determined for the active test compounds. Compounds shown to have no agonist activities (Emax=0%) are further analyzed for their ability to reverse agonist induced activity. In separate experiments, 6 concentrations of antagonist are preincubated for 20 minutes prior to the addition of agonist and forskolin. Cells are harvested as described above. The cAMP kit is supplied by Amershan and the RIA is performed as per kit instructions, and calculations of IC50 performed by GraphPad Prism.

[2] = target: T1, human 5HT1A receptor; test: 5-HT1A Receptor Binding Assay (displacement of [^3 H] 8-OH-DPAT binding in CHO cells stably transfected with human 5HT1A receptor)
Protocol: High affinity for the serotonin 5-HT1A receptor was established by testing a compound's ability to displace [^3 H] 8-OH-DPAT binding in CHO cells stably transfected with human 5HT1A receptor. Stably transfected CHO cells are grown in DMEM containing 10% heat inactivated FBS and non-essential amino acids. Cells are scraped off the plate, transferred to centrifuge tubes, and washed twice by centrifugation (2000 rpm for 10 min., 4° C.) in buffer (50 mM Tris pH 7.5). The resulting pellets are aliquoted and placed at -80° C. On the day of assay, the cells are thawed on ice and resuspended in buffer. The binding assay is performed in a 96 well microtiter plate in a total volume of 250 μL. Non-specific binding is determined in the presence of […] 5-HT, final ligand concentration is 1.5 nM. Following a 30 minute incubation at room temperature, the reaction is terminated by the addition of ice cold buffer and rapid filtration through a GF/B filter presoaked for 30 minutes in 0.5% PEI. Compounds are initially tested in a single point assay to determine percent inhibition at […], and Ki values are determined for the active compounds.

[3] = target: T1, human 5HT1A receptor; test: 5-HT1A Receptor Intrinsic Activity Assay, ability to reverse agonist induced activity (cAMP, CHO cells stably transfected with the human 5-HT1A receptor); format: cell-based; settings: reversal of agonist induced activity; 6 concentrations of antagonist preincubated 20 minutes prior to agonist and forskolin
Protocol: as §1
as §2, with “The cAMP kit is supplied by Amershan and the RIA is performed as per kit instructions, and calculations of IC50 performed by GraphPad Prism.” left out

[4] = agonist activity, forskolin 1 μM, CHO cells, 10 minutes at 37° C.
[5] = [^3 H] 8-OH-DPAT 1.5 nM, CHO cells, 30 minute incubation at room temperature, read-out: 5-HT1A binding Ki

Which results are given for `COc1ccc(F)cc1C1CCN(C[C@@H](Cc2ccccc2)N(C)C(=O)NC2CCCCC2)CC1` [Example 1, 1-{(1R)-1-Benzyl-2-[4-(5-fluoro-2-methoxyphenyl)-piperidin-1-yl]-ethly}-1-3-cyclohexyl-1-methyl-urea]?
Emax [1, 4]: 0%; Ki [2, 5]: 0.0035 µM; IC50 [3]: 0.0469 µM

How did the Emax [1, 4] turn out when `COc1ccc(F)cc1C1=CCN(C[C@@H](Cc2ccccc2)N(C)C(=O)NC2CCCCC2)CC1` [Example 3, 1-{(1R)-1-Benzyl-2-[4-(5-fluoro-2-methoxy-phenyl)-1,2,5,6-tetrahydro-4H-pyridin-1-yl]-ethyl-}-3-cyclohexyl-1-methyl-urea] was run?
The Emax was 0%.

And the Ki [2, 5]?
The Ki was 0.0035 µM.

What about the IC50 [3] of the same compound?
The IC50 was 0.0126 µM.

With `COc1ccc(F)cc1C1=CCN(C[C@@H](Cc2ccccc2)N(C)C(=O)N2CCOCC2)CC1` [Example 2, Morpholine-4-carboxylic acid {(1R)-1-benzyl-2-[4-(5-fluoro-2-methoxy-phenyl)-1,2,5,6-tetrahydro-4H-pyridin-1-yl]-ethyl}-methyl-amide] as the compound, how does the Emax ([1]; CHO) read?
Its Emax is 0%.

And the Ki [2]?
The Ki was 0.0266 µM.
